Each structure is given as a SMILES string. Like-named read-outs stand apart in the source and are kept apart here.

Assay [1] deals with NAMPT (Homo sapiens (Human), UniProt P43490). As to the kind of experiment: Biochemical Inhibition Assay (NAMPT enzymatic reaction, NMN quantified by mass spectrometry). Conditions: recombinant His-tagged NAMPT, 33 nM; 1 μM NAM; read-out: Biochem IC50. Put shortly: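 His-tagged human NAMPT from E. coli was preincubated 15 min at RT with compound in Hepes pH 7.5/MgCl2 buffer. Reaction ran 30 min at RT with 1 μM NAM, 100 μM PRPP and 2.5 mM ATP, then was quenched with formic acid. NMN was measured by RapidFire MS, normalized to L-cystathionine, and IC50 derived from % inhibition.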

For assay [2], the system named is A2780 cells. As to the kind of experiment: In-Vitro Cell Proliferation Assay (SRB, 72 hours). It counts as cell-based. As to conditions: A2780 cells, 72 hours, sulforhodamine B, read-out: A2780 IC50. An outline of the steps: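 Plated cells exposed to serially diluted compound (0.1% DMSO final) for 72 h at 37 °C, 5% CO2. Viability by SRB staining after TCA fixation, absorbance 570 nm, media-only background subtracted; % inhibition relative to DMSO-treated cells, interpolated between bracketing concentrations.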

Chain of NAMPT (P43490 whole entry): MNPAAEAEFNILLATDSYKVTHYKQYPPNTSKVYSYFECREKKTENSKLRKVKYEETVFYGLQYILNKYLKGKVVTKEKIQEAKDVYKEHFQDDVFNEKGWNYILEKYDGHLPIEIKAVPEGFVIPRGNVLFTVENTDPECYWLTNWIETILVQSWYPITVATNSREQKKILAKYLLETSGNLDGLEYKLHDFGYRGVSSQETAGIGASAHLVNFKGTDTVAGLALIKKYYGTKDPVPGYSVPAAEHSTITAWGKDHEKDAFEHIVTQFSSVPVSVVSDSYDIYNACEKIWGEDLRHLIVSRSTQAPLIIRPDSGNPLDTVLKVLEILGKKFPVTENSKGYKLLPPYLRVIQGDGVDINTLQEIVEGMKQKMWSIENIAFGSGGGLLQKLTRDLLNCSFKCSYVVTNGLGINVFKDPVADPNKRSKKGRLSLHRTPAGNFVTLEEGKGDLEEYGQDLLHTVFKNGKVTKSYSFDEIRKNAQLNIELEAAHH

For orientation: IC50 means the concentration that inhibits the measured activity by half. Take `COc1cc(OC)cc(S(=O)(=O)c2ccc(NC(=O)/C=C/c3cccnc3)cc2)c1` [(2E)-N-{4-[(3,5-dimethoxybenzene)sulfonyl]phenyl}-3-(pyridin-3-yl)prop-2-enamide]: the IC50 was 20.3 nM in assay [1] and 44.3 nM in assay [2] (Homo sapiens, A2780, 72 h).
In the same order, the values of `CC(C)Oc1ccc(S(=O)(=O)c2ccc(NC(=O)/C=C/c3cccnc3)cc2)cc1` [(2E)-N-(4-{[4-(propan-2-yloxy)benzene]sulfonyl}phenyl)-3-(pyridin-3-yl)prop-2-enamide] are 5.4 nM and 91.5 nM.
With `COc1ccccc1S(=O)(=O)c1ccc(NC(=O)/C=C/c2cccnc2)cc1` [(2E)-N-{4-[(2-methoxybenzene)sulfonyl]phenyl}-3-(pyridin-3-yl)prop-2-enamide], the IC50 turned out to be 7.7 nM in assay [1] and 24.1 nM in assay [2] (Homo sapiens, A2780, 72 h).
For `O=C(/C=C/c1cccnc1)Nc1ccc(S(=O)(=O)c2cncc3ccccc23)cc1` [(2E)-N-[4-(isoquinoline-4-sulfonyl)phenyl]-3-(pyridin-3-yl)prop-2-enamide] the same measures were 2.45 nM and 21.7 nM.
With `O=C(/C=C/c1cccnc1)Nc1ccc(S(=O)(=O)c2cccc(F)c2)cc1` [(2E)-N-{4-[(3-fluorobenzene)sulfonyl]phenyl}-3-(pyridin-3-yl)prop-2-enamide], the IC50 in assay [1] amounted to 66.4 nM; in assay [2] (Homo sapiens, A2780, 72 h), 103 nM.
In the same order, the values of `CS(=O)(=O)c1ccc(S(=O)(=O)c2ccc(NC(=O)/C=C/c3cccnc3)cc2)cc1` [(2E)-N-{4-[(4-methanesulfonylbenzene)sulfonyl]phenyl}-3-(pyridin-3-yl)prop-2-enamide] are 11.4 nM and 100 to 1000 nM.
For `COc1cc(Cl)ccc1S(=O)(=O)c1ccc(NC(=O)/C=C/c2cccnc2)cc1` [(2E)-N-{4-[(4-chloro-2-methoxybenzene)sulfonyl]phenyl}-3-(pyridin-3-yl)prop-2-enamide] the same measures were 7.3 nM and 109 nM.
Consider `O=C(Nc1ccc(S(=O)(=O)c2ccccc2)cc1)/C(F)=C/c1cccnc1` [(2Z)-N-[4-(benzenesulfonyl)phenyl]-2-fluoro-3-(pyridin-3-yl)prop-2-enamide], for which the IC50 in assay [1] came out at 7 nM; in assay [2] (Homo sapiens, A2780, 72 h) it was 347 nM.
In the case of `O=C(/C=C/c1cccnc1)Nc1ccc(S(=O)(=O)c2cc(Cl)cc(Cl)c2)cc1` [(2E)-N-{4-[(3,5-dichlorobenzene)sulfonyl]phenyl}-3-(pyridin-] [(2E)-N-{4-[(3,5-dichlorobenzene)sulfonyl]phenyl}-3-(pyridin-3-yl)prop-2-enamide], the figures for the IC50 in assay [1] and in assay [2] were 50.5 nM and 186 nM, respectively.
Take `O=C(/C=C/c1cccnc1)Nc1ccc(S(=O)(=O)c2cccc(-c3ccccc3)c2)cc1` [(2E)-N-{4-[(3-phenylbenzene)sulfonyl]phenyl}-3-(pyridin-3-yl)prop-2-enamide]: the IC50 in assay [1] is 25.4 nM; in assay [2] (Homo sapiens, A2780, 72 h), 100 to 1000 nM.
With `CS(=O)(=O)c1cccc(S(=O)(=O)c2ccc(NC(=O)/C=C/c3cccnc3)cc2)c1` [(2E)-N-{4-[(3-methanesulfonylbenzene)sulfonyl]phenyl}-3-(pyridin-3-yl)prop-2-enamide], the IC50 in assay [1] was 14.3 nM; in assay [2] (Homo sapiens, A2780, 72 h), 100 to 1000 nM.

Source of the values: patent US9169209B2, “Compounds and compositions for the inhibition of NAMPT” (FORMA TM, LLC, priority 2011, dated 2015).
